ChEMBL document CHEMBL2385028, “Augmentation of GABAergic neurotransmission by novel N-(substituted)-2-[4-(substituted)benzylidene]hydrazinecarbothioamides-a potential anticonvulsant approach” (Eur J Med Chem, 2013)
Calls of active or inactive are those of the source. No cut-off for these calls is given here.

How the values were obtained:
physchem = settings: octanol/phosphate buffer
Description: Octanol-phosphate buffer partition coefficient, log P of the compound after 24 hrs by UV spectroscopic analysis

Mus musculus [1] = experiment: Anticonvulsant activity in albino CF-1 mouse assessed as protection against 6 Hz psychomotor seizure at 100 mg/kg, ip after 1 hr by minimal clonic seizure test relative to control; format: functional; settings: route intraperitoneal
Mus musculus [2] = experiment: Anticonvulsant activity in albino CF-1 mouse assessed as protection against 6 Hz psychomotor seizure at 100 mg/kg, ip after […] by minimal clonic seizure test relative to control
Description: Anticonvulsant activity in albino CF-1 mouse assessed as protection against 6 Hz psychomotor seizure at 100 mg/kg, ip after 0.25 hrs by minimal clonic seizure test relative to control

Mus musculus [3] = experiment: Anticonvulsant activity in albino CF-1 mouse assessed as protection against 6 Hz psychomotor seizure at 100 mg/kg, ip after 0.5 hrs by minimal clonic seizure test relative to control; format: functional; settings: route intraperitoneal
Rattus norvegicus [4] = experiment: Neurotoxicity in albino Sprague-Dawley rat assessed as motor impairment up to 600 mg/kg, ip measured for 4 hrs; format: toxicity, organism-based; parameters: dose 600 mg/kg, route intraperitoneal; settings: in vivo
[5] = Neuroprotective activity in hippocampal slices (unknown origin) assessed as protection against kainic acid-induced cell death by propidium-iodide staining-based fluorescence assay; format: functional, tissue-based; settings: Hippocampus
[6] = Neuroprotective activity in hippocampal slices (unknown origin) assessed as protection against NMDA-induced cell death by propidium-iodide staining-based fluorescence assay; format: functional, tissue-based; settings: Hippocampus
Rattus norvegicus [7] = experiment: Anticonvulsant activity in albino Sprague-Dawley rat assessed as protection against pilocarpine-induced status epilepticus at 600 mg/kg, ip administered prior to pilocarpine-challenge; format: functional, organism-based; parameters: dose 600 mg/kg
[8] = Inhibition of voltage-dependent calcium channel subunit alpha-2/delta gabapentin binding site (unknown origin); parameters: species or system Homo sapiens
Mus musculus [9] = experiment: Anticonvulsant activity in ip dosed albino CF-1 mouse assessed as protection against maximal electroshock-induced seizures in half or more animals after 0.5 hrs; format: functional; settings: albino CF-1, ip, read-out: MED
Mus musculus [10] = experiment: Anticonvulsant activity in ip dosed albino CF-1 mouse assessed as protection against maximal electroshock-induced seizures in half or more animals after 4 hrs; format: functional; settings: albino CF-1, ip, read-out: MED
Mus musculus [11] = experiment: Anticonvulsant activity in ip dosed albino CF-1 mouse assessed as protection against maximal electroshock-induced seizures in half or more animals after 2 hrs; format: functional; settings: albino CF-1, ip, read-out: MED
Mus musculus [12] = experiment: Anticonvulsant activity in albino CF-1 mouse assessed as protection against subcutaneous metrazole-induced seizures in half or more animals at 300 mg/kg, ip after 4 hrs; format: functional, organism-based; parameters: dose 300 mg/kg
Mus musculus [13] = experiment: Anticonvulsant activity in albino CF-1 mouse assessed as protection against subcutaneous metrazole-induced seizures in half or more animals at 300 mg/kg, ip after 0.5 hrs; format: functional, organism-based; parameters: dose 300 mg/kg
Mus musculus [14] = experiment: Anticonvulsant activity in albino CF-1 mouse assessed as protection against 6 Hz psychomotor seizure at 100 mg/kg, ip after 4 hrs by minimal clonic seizure test; format: functional; settings: route intraperitoneal
Mus musculus [15] = experiment: Anticonvulsant activity in ip dosed albino CF-1 mouse assessed as protection against subcutaneous metrazole-induced seizures in half or more animals after 0.5 hrs; format: functional; settings: albino CF-1, 0.5 h, read-out: MED
Mus musculus [16] = experiment: Anticonvulsant activity in albino CF-1 mouse at 300 mg/kg, ip assessed as protection against maximal electroshock-induced seizures in half or more animals after 4 hrs; format: functional, organism-based; parameters: dose 300 mg/kg
Mus musculus [17] = experiment: Anticonvulsant activity in albino CF-1 mouse at 300 mg/kg, ip assessed as protection against maximal electroshock-induced seizures in half or more animals after 2 hrs; format: functional, organism-based; parameters: dose 300 mg/kg
Mus musculus [18] = experiment: Anticonvulsant activity in albino CF-1 mouse at 300 mg/kg, ip assessed as protection against maximal electroshock-induced seizures in half or more animals after 0.5 hrs; format: functional, organism-based; parameters: dose 300 mg/kg
Rattus norvegicus [19] = experiment: Effect on GABA levels in Wistar rat medulla oblongata at 30 mg/kg, ip after 2 hrs measured per 100 mg tissue; format: functional; settings: route intraperitoneal
Mus musculus [20] = experiment: Anticonvulsant activity in ip dosed albino CF-1 mouse assessed as protection against 6 Hz psychomotor seizure after 4 hrs by minimal clonic seizure test; format: functional; settings: albino CF-1, ip
Mus musculus [21] = experiment: Anticonvulsant activity in albino CF-1 mouse at 100 mg/kg, ip assessed as protection against maximal electroshock-induced seizures in half or more animals after 4 hrs relative to control; format: functional; settings: route intraperitoneal
Rattus norvegicus [22] = experiment: Effect on GABA levels in Wistar rat olfactory lobe at 30 mg/kg, ip after 2 hrs measured per 100 mg tissue; format: functional; settings: route intraperitoneal
Rattus norvegicus [23] = experiment: Effect on GABA levels in Wistar rat cerebellum at 30 mg/kg, ip after 2 hrs measured per 100 mg tissue; format: functional; settings: route intraperitoneal
Rattus norvegicus [24] = experiment: Effect on GABA levels in Wistar rat midbrain at 30 mg/kg, ip after 2 hrs measured per 100 mg tissue; format: functional; settings: route intraperitoneal
Mus musculus [25] = experiment: Anticonvulsant activity in albino CF-1 mouse assessed as protection against 6 Hz psychomotor seizure at 100 mg/kg, ip after 2 hrs by minimal clonic seizure test relative to control; format: functional; settings: route intraperitoneal
Mus musculus [26] = experiment: Anticonvulsant activity in albino CF-1 mouse at 300 mg/kg, ip assessed as protection against maximal electroshock-induced seizures in half or more animals after 4 hrs relative to control; format: functional; settings: route intraperitoneal

Cc1ccc(Oc2ccc(/C=N/NC(=S)Nc3ccccc3)cc2)cc1
logP at 24 h (physchem): 5.39

Cc1cc(Oc2ccc(/C=N/NC(=S)NC3CCCCC3)cc2)ccc1Cl
logP at 24 h (physchem): 6.76
Activity (Mus musculus [1]): 75%
Activity (Mus musculus [2]): inactive

Cc1ccc(NC(=S)N/N=C/c2ccc(Oc3ccc4c(c3)OCO4)cc2)cc1
logP at 24 h (physchem): 5.34

Cc1ccc(NC(=S)N/N=C/c2ccc(Oc3ccc(C)cc3)cc2)cc1
logP at 24 h (physchem): 5.84

COc1ccc(NC(=S)N/N=C/c2ccc(Oc3ccccc3)cc2)cc1
logP at 24 h (physchem): 4.99
Activity (Mus musculus [3]): 50%
Activity (Rattus norvegicus [4]): Non-toxic
Activity [5]: inactive
Activity [6]: inactive
Activity (Rattus norvegicus [7]): inactive
Activity (Mus musculus [1]): 75%

Cc1ccc(NC(=S)N/N=C/c2ccc(Oc3ccc4ccccc4c3)cc2)cc1
logP at 24 h (physchem): 6.56

O=C(O)[C@H]1CNCC12CCCCC2
IC50 [8]: 120 nM

COc1ccc(NC(=S)N/N=C/c2ccc(Oc3ccc(Br)cc3)cc2)cc1
logP at 24 h (physchem): 5.84

S=C(N/N=C/c1ccc(Oc2ccc(Cl)cc2)cc1)Nc1ccccc1
logP at 24 h (physchem): 5.52

S=C(N/N=C/c1ccc(Oc2ccc3ccccc3c2)cc1)NC1CCCCC1
logP at 24 h (physchem): 6.79

O=C1NC(=O)C(c2ccccc2)(c2ccccc2)N1 [PHENYTOIN]
minimal effective dose (Mus musculus [9]): 30 mg/kg
minimal effective dose (Mus musculus [10]): 30 mg/kg
minimal effective dose (Mus musculus [11]): 30 mg/kg
Activity (Mus musculus [12]): inactive
Activity (Mus musculus [13]): inactive

S=C(N/N=C/c1ccc(Oc2ccccc2)cc1)Nc1ccccc1
logP at 24 h (physchem): 4.9

S=C(N/N=C/c1ccc(Oc2ccc3ccccc3c2)cc1)Nc1ccccc1
logP at 24 h (physchem): 6.07

COc1ccc(NC(=S)N/N=C/c2ccc(Oc3ccc(F)cc3)cc2)cc1
logP at 24 h (physchem): 5.09
Activity (Mus musculus [14]): 25%
Activity (Mus musculus [2]): inactive

CCCC(CCC)C(=O)[O-].[Na+] [VALPROATE SODIUM]
minimal effective dose (Mus musculus [15]): 300 mg/kg
Activity (Mus musculus [16]): inactive
Activity (Mus musculus [17]): inactive
Activity (Mus musculus [12]): inactive
Activity (Mus musculus [18]): inactive

Cc1ccc(NC(=S)N/N=C/c2ccc(Oc3ccc(Br)cc3)cc2)cc1
logP at 24 h (physchem): 6.23

S=C(N/N=C/c1ccc(Oc2ccc(Cl)cc2)cc1)NC1CCCCC1
logP at 24 h (physchem): 6.44
Activity (Rattus norvegicus [19]): 47.24 mg
Activity (Mus musculus [3]): 75%
Activity (Rattus norvegicus [4]): Non-toxic
ED50 (Mus musculus [20]): > 100 mg/kg
minimal effective dose (Mus musculus [10]): 100 mg/kg
Activity [5]: inactive
Activity (Mus musculus [21]): 100%
Activity (Mus musculus [17]): inactive
Activity (Rattus norvegicus [22]): 14.81 mg
Activity [6]: inactive
Activity (Mus musculus [12]): inactive
Activity (Mus musculus [13]): inactive
Activity (Rattus norvegicus [23]): 24.43 mg
Activity (Mus musculus [18]): inactive
Activity (Rattus norvegicus [7]): inactive
Activity (Rattus norvegicus [24]): 51.76 mg
Activity (Mus musculus [1]): 75%
Activity (Mus musculus [2]): inactive

COc1ccc(NC(=S)N/N=C/c2ccc(Oc3ccc(C)cc3)cc2)cc1
logP at 24 h (physchem): 5.44
Activity (Rattus norvegicus [19]): 50.08 mg
Activity (Rattus norvegicus [4]): Non-toxic
Activity (Mus musculus [25]): 50%
ED50 (Mus musculus [20]): > 100 mg/kg
minimal effective dose (Mus musculus [10]): 300 mg/kg
Activity [5]: inactive
Activity (Mus musculus [26]): 100%
Activity (Mus musculus [17]): inactive
Activity (Rattus norvegicus [22]): 15.84 mg
Activity [6]: inactive
Activity (Mus musculus [12]): inactive
Activity (Mus musculus [13]): inactive
Activity (Rattus norvegicus [23]): 27.02 mg
Activity (Mus musculus [18]): inactive
Activity (Rattus norvegicus [7]): inactive
Activity (Rattus norvegicus [24]): 58.09 mg
Activity (Mus musculus [1]): 100%

COc1ccc(NC(=S)N/N=C/c2ccc(Oc3ccc(Cl)c(C)c3)cc2)cc1
logP at 24 h (physchem): 6.03
Activity (Mus musculus [2]): inactive

O=[N+]([O-])c1ccc(Oc2ccc(/C=N/NC(=S)Nc3ccccc3)cc2)cc1
logP at 24 h (physchem): 4.95

Cc1ccc(NC(=S)N/N=C/c2ccc(Oc3ccc(F)cc3)cc2)cc1
logP at 24 h (physchem): 5.48

Cc1ccc(Oc2ccc(/C=N/NC(=S)NC3CCCCC3)cc2)cc1
logP at 24 h (physchem): 6.17

S=C(N/N=C/c1ccc(Oc2ccc3c(c2)OCO3)cc1)NC1CCCCC1
logP at 24 h (physchem): 5.56

Cc1ccc(NC(=S)N/N=C/c2ccc(Oc3ccc([N+](=O)[O-])cc3)cc2)cc1
logP at 24 h (physchem): 5.23

COc1ccc(NC(=S)N/N=C/c2ccc(Oc3ccc([N+](=O)[O-])cc3)cc2)cc1
logP at 24 h (physchem): 4.9

Fc1ccc(Oc2ccc(/C=N/NC(=S)NC3CCCCC3)cc2)cc1
logP at 24 h (physchem): 5.82
Activity (Mus musculus [25]): 50%
Activity (Mus musculus [2]): inactive

Cc1ccc(NC(=S)N/N=C/c2ccc(Oc3ccccc3)cc2)cc1
logP at 24 h (physchem): 5.28
Activity (Mus musculus [3]): 50%
Activity (Mus musculus [2]): inactive

Fc1ccc(Oc2ccc(/C=N/NC(=S)Nc3ccccc3)cc2)cc1
logP at 24 h (physchem): 5.09
Activity (Mus musculus [2]): inactive

COc1ccc(NC(=S)N/N=C/c2ccc(Oc3ccc(Cl)cc3)cc2)cc1
logP at 24 h (physchem): 5.68

COc1ccc(NC(=S)N/N=C/c2ccc(Oc3ccc4c(c3)OCO4)cc2)cc1
logP at 24 h (physchem): 4.9

S=C(N/N=C/c1ccc(Oc2ccc(Br)cc2)cc1)Nc1ccccc1
logP at 24 h (physchem): 5.62
Activity (Mus musculus [2]): inactive

S=C(N/N=C/c1ccc(Oc2ccc(Br)cc2)cc1)NC1CCCCC1
logP at 24 h (physchem): 6.36
Activity (Mus musculus [2]): inactive

S=C(N/N=C/c1ccc(Oc2ccc3c(c2)OCO3)cc1)Nc1ccccc1
logP at 24 h (physchem): 4.8

Cc1ccc(NC(=S)N/N=C/c2ccc(Oc3ccc(Cl)cc3)cc2)cc1
logP at 24 h (physchem): 6.71

S=C(N/N=C/c1ccc(Oc2ccccc2)cc1)NC1CCCCC1
logP at 24 h (physchem): 5.7

Cc1cc(Oc2ccc(/C=N/NC(=S)Nc3ccccc3)cc2)ccc1Cl
logP at 24 h (physchem): 6.03
Activity (Mus musculus [2]): inactive

O=[N+]([O-])c1ccc(Oc2ccc(/C=N/NC(=S)NC3CCCCC3)cc2)cc1
logP at 24 h (physchem): 5.51

COc1ccc(NC(=S)N/N=C/c2ccc(Oc3ccc4ccccc4c3)cc2)cc1
logP at 24 h (physchem): 6.11
